Measurements: publication PMC7308271, “Discovery of a new class of orthosteric antagonists with nanomolar potency at extrasynaptic GABAA receptors” (Scientific Reports, 2020)
One block for each compound: values may come before it.

How the values were obtained:
[1] = molecular target: T1, human α4β1δ receptors in δ-HEK cells (Homo sapiens, UniProt P18505+P48169); assay: Whole-cell patch-clamp electrophysiology, kinetic studies of GABA activation after 018 pre-application; type: cell-based
T1 construct: expressed in transfected cells; host or cells: δ-HEK (HEK293 Flp-In stably expressing human δ), transiently transfected with α4 and β1 1:1
Description: δ-HEK cells transiently expressing human α4β1δ receptors were seeded in 35 mm Petri dishes the day before experiment and used for recordings in a similar was as previously reported. On the day of experiment the dishes were transferred to the stage of an Axiovert 10 microscope (Zeiss, Germany), and the culture medium was exchanged for artificial balanced salt solution (ABBS) at room temperature (20−24 °C). The ABSS solution contained the following (in mM): NaCl 140, KCl 3.5, Na2HPO4 1.25, MgSO4 2, CaCl2 2, glucose 10, and HEPES 10; pH 7.35. The cells were viewed at 200× magnification, and cells containing green fluorescent protein were visualized with UV light from an HBO 50 lamp (Zeiss, Germany). The cells were approached with micropipettes of 1.2−3.3 MΩ resistance manufactured from 1.5 mm OD glass (World Precision Instruments, Sarasota, Florida) on a microelectrode puller, model PP-830 (Narishige, Tokyo, Japan). The intrapipette solution contained the following (in mM): KCl 140, MgCl2 1, CaCl2 1, EGTA 10, MgATP 2, and HEPES 10; pH 7.3. Standard patch-clamp techniques in voltage clamp mode[44] were used to record from cells in the whole-cell configuration using an EPC-9 amplifier (HEKA, Lambrecht, Germany). A clamping potential of −60 mV was used, and series resistance was 80% compensated. Whole-cell currents were recorded and subsequently analyzed using Pulse and PulseFit software (HEKA, Lambrecht, Germany).
ABSS solution containing the compounds were applied using two VC3–8xP pressurized application systems feeding into a sixteen-barreled perfusion pipette (ALA Scientific Instruments Inc., Farmingdale New York, USA) ending approximately 100 μm from the recorded cell. Between the compound applications, compound-free ABSS was applied from one of the barrels in order to quickly remove the compounds from the cell. […] The cells were left to recover for 1 min before the next application.
Current relaxations were fitted to a single or biexponential equation using a Simplex optimization algorithm (PulseFit; HEKA, Lambrecht, Germany). I(t)=I0+I1exp−t/τ1+I2exp−t/τ2
With I denoting the currents at a time t and τ1 and τ2 the time constants. All curve-fitting results were carefully inspected visually. In some cases, the current relaxations were fitted to both a mono- and a biexponential function and an F-test was applied to the residual sum of squares to determine the appropriateness of using a second component: F=(SSA−SSB)dfB/SSB(dfA−dfB)=(RMSA2−RMSB2)dfB/RMSB2(dfA−dfB) where SS and RMS are the sum of squares and root mean square deviation between fit and data, respectively. A and B refer to the single and biexponential fit, respectively. df represents the degree of freedom for each fit. Time constants were given as medians followed by the 25–75% percentile in square brackets.

[2] = molecular target: [^3H]muscimol binding (GABAΑ receptors) in rat brain cortical homogenate; assay: [3H]muscimol radioligand binding in rat cortical homogenate; conditions: for Ki: 5 nM [^3H]muscimol, n = 4; for pKi ± SEM: [^3H]muscimol
Description: The binding studies were performed using rat brain homogenate prepared from the cortex of adult Sprague-Dawley male rats (250–350 g) obtained from commercial breeders (Janvier Laboratories, Le Genest-Saint-Isle, France), housed and cared for according to the Danish legislation regulating animal experiments and the European Communities Council Directive (2010/63/EU). Homogenate preparation was performed as described earlier. On the day of assay, membranes stored at −20 °C was quickly thawed followed by addition of 40 volumes of ice-cold binding buffer (50 mM TRIS-HCl buffer; pH 7.4) and homogenization using and UltraTurrax homogenizer before being centrifuged at 48,000 ×g for 10 minutes at 4 °C. This washing procedure was repeated 4 times before the final pellet was suspended in the binding buffer to final concentration of approximately 0.5 mg/mL protein.
The radioligand binding assay was performed using [^3H]muscimol in a 96-well format. [^3H]muscimol (5 nM) was incubated with 75 μg/well protein with or without test compound or control at 0 °C for 1 hour in a total volume of 200 μL binding buffer in triplicates. […] After incubation, the binding reaction was terminated by rapid filtration through GF/C unifilters (PerkinElmer) with the use of a 96-well Packard FilterMate cell harvester (PerkinElmer), followed by 3 times washing in 250 μL ice-cold binding buffer. After drying at 65 °C, microscintillation fluid was added to the dried filters and the radioactivity bound to the filter was quantified in a Packard TopCounter microplate scintillation counter. The obtained binding data was converted into specific binding (% of control) for each data point and fitted to the one-site competition model by […] (GraphPad Prism, version 8.2.1). The fitted IC50 values were converted into Ki values by means of the Cheng-Prusoff equation[46]. Data are from three independent experiments, performed with three technical replicates and Ki values are given as pKi ± SEM.

[3] = 100 μM GABA, 3 nM 018, biexponential fit
[4] = 100 μM GABA, 10 nM 018, biexponential fit
[5] = 100 μM GABA, 30 nM 018, biexponential fit
[6] = […] GABA, 10 nM 018, biexponential fit
[7] = […] GABA, 30 nM 018, biexponential fit, n = 5

T1 sequence (P48169 36-554): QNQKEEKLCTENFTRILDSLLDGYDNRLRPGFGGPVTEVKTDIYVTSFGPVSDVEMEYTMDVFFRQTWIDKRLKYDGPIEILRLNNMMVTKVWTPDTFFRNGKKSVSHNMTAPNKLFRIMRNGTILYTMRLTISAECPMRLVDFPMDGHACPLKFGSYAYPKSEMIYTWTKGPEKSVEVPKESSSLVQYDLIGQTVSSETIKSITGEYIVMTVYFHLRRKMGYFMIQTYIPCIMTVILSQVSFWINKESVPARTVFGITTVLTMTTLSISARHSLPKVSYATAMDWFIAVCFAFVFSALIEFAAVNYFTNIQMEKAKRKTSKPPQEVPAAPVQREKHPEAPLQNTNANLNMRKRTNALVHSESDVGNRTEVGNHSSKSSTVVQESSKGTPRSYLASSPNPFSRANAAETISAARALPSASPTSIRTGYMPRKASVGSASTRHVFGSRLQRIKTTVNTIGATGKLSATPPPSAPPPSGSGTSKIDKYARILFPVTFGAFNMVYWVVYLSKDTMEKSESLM
T1 sequence (P18505 26-474): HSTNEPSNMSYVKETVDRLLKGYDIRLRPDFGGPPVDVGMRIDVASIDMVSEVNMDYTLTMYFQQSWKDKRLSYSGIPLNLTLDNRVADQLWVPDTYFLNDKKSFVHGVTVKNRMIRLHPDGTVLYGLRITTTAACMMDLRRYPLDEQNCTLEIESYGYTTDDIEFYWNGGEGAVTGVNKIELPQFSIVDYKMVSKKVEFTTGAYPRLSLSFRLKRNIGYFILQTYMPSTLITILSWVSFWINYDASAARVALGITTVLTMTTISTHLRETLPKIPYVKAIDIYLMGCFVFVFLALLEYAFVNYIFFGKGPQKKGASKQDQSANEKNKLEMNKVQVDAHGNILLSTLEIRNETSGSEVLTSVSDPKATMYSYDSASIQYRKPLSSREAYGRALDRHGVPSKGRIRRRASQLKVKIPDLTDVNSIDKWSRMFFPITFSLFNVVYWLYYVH
T1 sequence (O14764 25-452 partner): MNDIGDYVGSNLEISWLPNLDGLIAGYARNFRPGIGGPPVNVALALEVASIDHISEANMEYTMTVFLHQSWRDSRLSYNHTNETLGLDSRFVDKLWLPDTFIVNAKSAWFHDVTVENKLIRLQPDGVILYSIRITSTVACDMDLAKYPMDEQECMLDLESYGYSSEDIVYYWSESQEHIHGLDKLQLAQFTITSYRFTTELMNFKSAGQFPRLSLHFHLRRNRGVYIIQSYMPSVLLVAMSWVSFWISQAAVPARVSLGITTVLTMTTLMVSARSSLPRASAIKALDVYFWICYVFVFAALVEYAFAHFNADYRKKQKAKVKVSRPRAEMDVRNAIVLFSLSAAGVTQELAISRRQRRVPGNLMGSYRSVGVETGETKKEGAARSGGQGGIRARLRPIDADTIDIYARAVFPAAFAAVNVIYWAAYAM

t1 ([1]; 100 μM GABA, 0.1 nM 018, monoexponential fit): 37.1 ms
%A1 ([1]; 100 μM GABA, 3 nM 018): 81.5%
t1 [1, 3]: 29.6 ms
t2 [1, 3]: 1070 ms
%A1 ([1]; 100 μM GABA, 10 nM 018): 33.9%
t1 [1, 4]: 41.4 ms
t2 [1, 4]: 2170 ms
%A1 ([1]; 100 μM GABA, 30 nM 018): 7.5%
t1 [1, 5]: 34.0 ms
t2 [1, 5]: 3685 ms
τ1 (ms) ([1]; […] GABA, 0.1 nM 018, monoexponential fit): 119 [101;167]^a ms
τ2 (ms) ([1]; […] GABA, 3 nM 018, biexponential fit): 1090 [960;2180] — ms
τ1 (ms) ([1]; […] GABA, 3 nM 018, biexponential fit, n = 7): 147 [115;183] ms
%A1 ([1]; […] GABA, 3 nM 018, fast component share of total current): 83.8 — %
τ1 (ms) ([1]; […] GABA, 3 nM 018, monoexponential fit, n = 3): 123 [73.3;273] ms
%A1 ([1]; […] GABA, 10 nM 018): 39.6%
τ1 (ms) [1, 6]: 107 [57.5;180] ms
τ2 (ms) [1, 6]: 2170 [1970;3010] ms
%A1 ([1]; […] GABA, 30 nM 018): 8.3 — %
τ1 [1, 7]: 68.0 ms
τ1 (ms) [1, 7]: 68.0 [56.3;106] — ms
τ2 (ms) [1, 7]: 3780 [3160;4710] ms
τ2 (ms) ([1]; […] GABA, 30 nM 018, monoexponential fit, n = 3): 4270 [4140;4920] ms
τ2 (ms) ([1]; […] GABA, 1000 nM 018, monoexponential fit): 3780 [3330;5350]^a ms
Ki [2]: 20 nM
pKi ± SEM [2]: 7.71 ± 0.06
SMILES: O=C(Nc1cccc(C(=O)N2CCC3(CCNCC3)CC2)c1)c1cccs1 [compound 018, N-(3-(3,9-diazaspiro[5.5]undecane-3-carbonyl)phenyl)thiophene-2-carboxamide]

SMILES: NCCCC(=O)O [GABA]
t1 (ms), activation time constant ([1]; 100 μM GABA alone (0 nM 018), monoexponential fit, median): 35.0 ms
τ (ms), activation time constant ([1]; […] GABA alone (0 nM 018), monoexponential fit, median [25–75% quartiles]): 174 [148;186]^a ms

Ki [2]: 560 nM
pKi ± SEM [2]: 6.25 ± 0.06
SMILES: CC(=O)Nc1cccc(C(=O)N2CCC3(CCNCC3)CC2)c1 [compound 2027, N-(3-(3,9-diazaspiro[5.5]undecane-3-carbonyl)phenyl)acetamide]
